# In publication PMC6555543 (PLoS Pathogens, 2019):
# What was measured:
# [1] = target: T1, RVFV CBD (CBD13, RVFV L protein cap-binding domain) (Rift Valley fever virus, UniProt A2SZS3); conditions: 1-10 mM ligand, 15 μM protein, 20 mM Na-phosphate pH 6.5, 100 mM NaCl
# [2] = target: T1, RVFV CBD (CBD13, RVFV L protein cap-binding domain); test: biochemical
# [3] = target: T1, RVFV CBD (CBD13, RVFV L protein cap-binding domain); conditions: 25°C, 50 mM Na-phosphate pH 6.5, 150 mM NaCl, 10% glycerol; 9.8 mM GTP in syringe, 194 μM protein
# T1 sequence (A2SZS3 1706-1822 limits assumed): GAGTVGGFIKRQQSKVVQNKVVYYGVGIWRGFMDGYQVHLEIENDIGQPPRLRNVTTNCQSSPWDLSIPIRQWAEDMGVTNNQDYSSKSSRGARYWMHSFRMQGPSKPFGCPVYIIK
smiles,measurement,setting,value
Nc1ncnc2c1ncn2[C@@H]1O[C@H](COP(=O)(O)OP(=O)(O)OP(=O)(O)O)[C@@H](O)[C@H]1O [ATP],ΔTm,[1],no or even negative effects on protein stability after addition of GTP or ATP
C[n+]1cn([C@@H]2O[C@H](COP(=O)(O)OP(=O)(O)OP(=O)(O)O)[C@@H](O)[C@H]2O)c2nc(N)[nH]c(=O)c21 [m^7GTP],Kd,[2],~737 µM
Nc1nc2c(ncn2[C@@H]2O[C@H](COP(=O)(O)OP(=O)(O)OP(=O)(O)O)[C@@H](O)[C@H]2O)c(=O)[nH]1 [GTP],KD,[3],For GTP the KD is too high to be determined by ITC
